# Data as given in patent US9670482B2, “Multispecific peptides” (BICYCLE THERAPEUTICS LIMITED, priority 2009, dated 2017).
# pIC50, pKd: −log10 of the molar value. Residues, ends and D or L forms follow the SMILES beside them.
# Key:
# [1] = target: T1, Kallikrein (Homo sapiens, UniProt P03952); assay: Kallikrein assays (Z-Phe-Arg-amc substrate); format: biochemical; details: IC50 for inhibition of kallikrein activity, 0.1 nM kallikrein, 100 μM substrate, 30° C.
# T1 construct: purchased Sigma Aldrich
# T1 sequence (P03952 20-638): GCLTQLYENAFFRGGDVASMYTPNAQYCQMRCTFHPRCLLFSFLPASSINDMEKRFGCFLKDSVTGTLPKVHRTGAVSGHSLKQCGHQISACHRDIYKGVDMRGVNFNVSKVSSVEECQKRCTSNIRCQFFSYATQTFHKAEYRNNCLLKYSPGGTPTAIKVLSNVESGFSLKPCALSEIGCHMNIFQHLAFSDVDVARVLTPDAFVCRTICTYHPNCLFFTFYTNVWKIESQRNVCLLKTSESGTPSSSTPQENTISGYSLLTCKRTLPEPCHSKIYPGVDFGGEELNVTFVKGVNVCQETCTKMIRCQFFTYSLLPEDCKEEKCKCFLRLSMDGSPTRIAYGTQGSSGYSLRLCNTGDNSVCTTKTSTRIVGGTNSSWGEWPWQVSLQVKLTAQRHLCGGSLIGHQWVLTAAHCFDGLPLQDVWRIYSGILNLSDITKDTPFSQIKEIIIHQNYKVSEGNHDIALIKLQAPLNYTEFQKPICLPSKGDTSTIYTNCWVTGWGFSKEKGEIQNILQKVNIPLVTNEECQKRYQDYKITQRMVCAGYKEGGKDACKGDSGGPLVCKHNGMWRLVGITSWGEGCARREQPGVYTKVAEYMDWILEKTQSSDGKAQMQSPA
# Protocol: Enzymes were purchased from Sigma Aldrich and substrates from Bachem A G. The assay buffer is composed of 10 mM Tris pH 7.4, 150 mM NaCl, 10 mM MgCl2, 1 mM CaCl2, 0.1% BSA, 0.01% Triton X100 and 5% DMSO. Enzymes are incubated with inhibitors for 30 minutes at RT prior to addition of substrate. All experiments were recorded at 30° C. for 90 minutes.
# Assays were performed on a BMG Pherastar plate reader at wavelengths of exc/em 350/450 nm. Kallikrein was bought as a solution of 1080 μg/mL and diluted to a working concentration of 0.3 nM in assay buffer. Substrate Z-Phe-Arg-amc was solubilised at the stock concentration of 10 mM in DMSO and diluted to a working concentration of 300 μM with assay buffer. Inhibitors were solubilised in assay buffer to a stock concentration of 60 μM. 50 μL of each reagent is introduced in wells for a final volume of 150 μL per well. Final concentration of kallikrein in assay is 0.1 nM and substrate is 100 μM.
# Final concentrations of inhibitors were: 0.5 nM, 1 nM, 2 nM, 5 nM, 8 nM, 10 nM, 20 nM, 50 nM, 80 nM, 100 nM, 200 nM, 500 nM, 800 nM, 1 μM, 2 μM, 5 μM, 8 μM, 10 μM and 20 μM. The initial rate of the reaction is obtained by plotting fluorescence=f (time) data and by fitting a linear trendline for each concentration of inhibitor. The inhibition curves are obtained by plotting initial rate=f ([I]) and IC50 values can be evaluated.
# [2] = target: bovine serum albumin (BSA) (Bos taurus, UniProt P02769); assay: Fluorescence anisotropy titration with BSA; details: for binding to BSA (change in anisotropy): titration with BSA, FIG. 4
# Chain of bovine serum albumin (BSA) (P02769 25-607): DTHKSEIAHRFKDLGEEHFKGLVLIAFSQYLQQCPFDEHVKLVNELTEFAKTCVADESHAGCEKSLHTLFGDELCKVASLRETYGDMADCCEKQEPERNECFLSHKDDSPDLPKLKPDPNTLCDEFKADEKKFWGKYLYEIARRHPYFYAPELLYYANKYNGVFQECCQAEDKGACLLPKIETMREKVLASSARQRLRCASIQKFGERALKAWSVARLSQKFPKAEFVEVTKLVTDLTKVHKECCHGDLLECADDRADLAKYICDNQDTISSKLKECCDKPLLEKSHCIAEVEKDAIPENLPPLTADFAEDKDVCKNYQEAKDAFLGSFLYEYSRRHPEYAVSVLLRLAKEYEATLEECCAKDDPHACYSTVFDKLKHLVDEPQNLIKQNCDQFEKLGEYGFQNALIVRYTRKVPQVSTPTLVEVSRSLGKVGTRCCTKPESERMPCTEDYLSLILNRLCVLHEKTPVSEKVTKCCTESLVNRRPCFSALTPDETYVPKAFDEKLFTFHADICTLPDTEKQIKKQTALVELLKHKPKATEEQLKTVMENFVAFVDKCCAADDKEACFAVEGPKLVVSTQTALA
# Text: For determining the affinity constant (Kd) of a fluorophore to target protein, we chose fluorescence anisotropy titrations.
# Excitation was specific for coumarin (328 nm), and emission at 393 nm.
# To determine whether a neighbouring group (here, Gly) on Fmoc affects binding to BSA, a similar experiment was run with Fmoc-Gly-OH (Nova Biochem). The intrinsic fluorescing properties of Fmoc were used for the anisotropy experiments.
# To determine whether a neighbouring hydrophobic bulky group has an enhancing or adverse effect on BSA binding, Fmoc-Phe-OH was tested as above.
# The solid phase resin employed was PAL-PEG-PS from Applied Biosystems. […] All peptides were capped with an N-terminal Fmoc, and a C-terminal amide (NH2). After cleavage, peptides were lyophilised, and solubilised in 5 mL of DMF. 100 μl of this was loaded onto an analytical C18 column using a Waters HPLC, using methanol and water (both in the presence of 0.1% TFA) as solvents. […] The peptide concentration in the cuvette was 200 nM.
# Excitation was at 299 nm (to minimise Trp absorption), and emission at 320 nm. Slit widths were at 5 and 12 nm, respectively.
# Peptide concentrations were estimated by the absorbance at 299 nm, using the extinction coefficient of 4700/M/cm. Excitation was at 299 nm, and emission was set to 320 nm, at slit widths of 5 and 12 nm, respectively.
# [3] = target: Kalikrein (Homo sapiens, UniProt P03952); assay: Peptide conjugate digestion with Kalikrein; format: in vitro ADME; parameters: digestion with Kalikrein: key to the marks not given beside the values; details: 37° C. for 1 hr
# Chain of Kalikrein (P03952 20-638): as the sequence (P03952 20-638) above
# Protocol: (§1) Linear peptides (PK15 and CG4L1-PK15L1) were first treated with iodoacetamide prior to digestion studies. The peptides (ca 3-4 mg) were purified by HPLC (semi-prep Proteo column as described in general methods), and the HPLC fraction (ca 3 ml) was neutralised with an equal volume of 50 mM ammonium bicarbonate. […] The reaction mixture was concentrated (rotary evaporator) and re-purified by HPLC as above.
# (§2) Peptides (linear and conjugates) were dissolved in water at a concentration of 1 mg/ml, giving an effective concentration of −0.5 mM stock solutions. 2 μl of peptide conjugates (˜30 μM in reactions depending on actual molecular weight) where dissolved in reaction buffer (see below) in a total reaction volume of 30 μl, followed by the protease, and samples were incubated at 37° C. for 1 hr. 10 μl aliquots were quenched into 20 μl of 10% dichloroacetic acid in MeCN/H2O (1:1) and stored at −20° C. for 30 minutes, centrifuged at 4° C. (13000 rpm) for 5 minutes and then spotted onto MALDI-TOF mass spectrometer plate for analysis.
# (§3) All reactions at 37° C. Cathepsin G and kalikrein reactions were carried out in 10 mM Tris pH 7.4, 150 mM NaCl, 10 mM MgCl2, 1 mM CaCl2, 0.1% BSA, 0.01% Triton X100, 5% DMSO. Chymotrypsin reactions were carried out in 100 mM Tris pH 7.4, 10 mM CaCl2. Pronase and proteinase K reactions were carried out in 100 mM Tris pH 7.4, 0.5% SDS. Subtilisin reactions were carried out in 50 mM KH2PO4 pH 7.5. Trypsin reactions were carried out in 67 mM sodium phosphate pH 7.6. Reaction conditions with serum involve dissolving the peptide in 1×PBS (total volume 24 μl) and 6 μl of human serum added to the reaction.
# [4] = test system: Chymotrypsin; assay: Peptide conjugate digestion with Chymotrypsin; format: in vitro ADME; details: 37° C. for 1 hr
# Protocol: as §1, §2, §3
# [5] = test system: Subtilisin; assay: Peptide conjugate digestion with Subtilisin; format: in vitro ADME; details: 37° C. for 1 hr
# Protocol: as §1, §2, §3
# [6] = target: T2, Cathepsin G (Homo sapiens, UniProt P08311); assay: Peptide conjugate digestion with Cathepsin G; format: in vitro ADME; parameters: key to the marks not given beside the values; details: 37° C. for 1 hr
# T2 sequence (P08311 21-244): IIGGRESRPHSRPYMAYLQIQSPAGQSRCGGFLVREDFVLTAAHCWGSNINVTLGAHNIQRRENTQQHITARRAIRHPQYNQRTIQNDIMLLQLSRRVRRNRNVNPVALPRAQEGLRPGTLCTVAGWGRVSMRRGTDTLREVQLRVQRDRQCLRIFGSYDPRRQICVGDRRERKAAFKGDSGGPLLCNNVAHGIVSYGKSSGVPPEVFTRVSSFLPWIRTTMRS
# Protocol: as §1, §2, §3
# [7] = test system: Pronase; assay: Peptide conjugate digestion with Pronase; format: in vitro ADME; parameters: key to the marks not given beside the values; details: 37° C. for 1 hr
# Protocol: as §1, §2, §3
# [8] = test system: Trypsin; assay: Peptide conjugate digestion with Trypsin; format: in vitro ADME; details: 37° C. for 1 hr
# Protocol: as §1, §2, §3
compound,measurement,setting,value
"CC[C@H](C)[C@@H]1NC(=O)[C@@H]2CSCc3cc(cc(c3)CSC[C@@H](C(=O)NCC(=O)O)NC(=O)[C@H](Cc3ccccc3)NC(=O)CNC(=O)[C@H](CC(C)C)NC(=O)[C@H](CC(=O)O)NC(=O)[C@H](Cc3ccccc3)NC1=O)CSC[C@H](NC(=O)[C@H](C)N)C(=O)N[C@@H](CO)C(=O)N[C@@H](CC(=O)O)C(=O)N[C@@H](CCCNC(=N)N)C(=O)N[C@@H](Cc1ccccc1)C(=O)N[C@@H](CCCNC(=N)N)C(=O)N[C@@H](CC(N)=O)C(=O)N2 [PK15L1-CG4L1 bicyclic] (HELM PEPTIDE1{A.C.S.D.R.F.R.N.C.I.F.D.L.G.F.C.G}|CHEM1{[c1c(C[*:1])cc(C[*:3])cc1C[*:2]]}$PEPTIDE1,CHEM1,2:R3-1:R1|PEPTIDE1,CHEM1,9:R3-1:R2|PEPTIDE1,CHEM1,16:R3-1:R3$$$V2.0)",pIC50,[1],6.70
O=C(O)CNC(=O)OCC1c2ccccc2-c2ccccc21 [Fmoc-Gly-OH],pKd,[2],6.38
"CC[C@H](C)[C@@H]1NC(=O)[C@@H]2CSCc3cc4cc(c3)CSC[C@H](NC(=O)[C@H](CC(N)=O)NC(=O)[C@H](CCCNC(=N)N)NC(=O)[C@H](Cc3ccccc3)NC(=O)[C@H](CCCNC(=N)N)NC(=O)[C@H](CC(=O)O)NC(=O)[C@H](CO)NC(=O)[C@H](CSC4)NC(=O)[C@H](Cc3ccccc3)NC(=O)CNC(=O)[C@H](CC(C)C)NC(=O)[C@H](CC(=O)O)NC(=O)[C@H](Cc3ccccc3)NC1=O)C(=O)N1CCC[C@H]1C(=O)N[C@@H](C)C(=O)N[C@@H](CC(=O)O)C(=O)N[C@@H](CCC(=O)O)C(=O)N[C@@H](C)C(=O)N[C@@H](CC(C)C)C(=O)N2 [CG4L1-PK15L1-PK15L2 tricyclic] (HELM PEPTIDE1{A.D.E.A.L.C.I.F.D.L.G.F.C.S.D.R.F.R.N.C.P}|CHEM1{[c1c(C[*:1])cc(C[*:3])cc1C[*:2]]}$PEPTIDE1,CHEM1,6:R3-1:R1|PEPTIDE1,CHEM1,13:R3-1:R2|PEPTIDE1,CHEM1,20:R3-1:R3|PEPTIDE1,PEPTIDE1,1:R1-21:R2$$$V2.0)",pIC50,[1],4.82
"CC[C@H](C)[C@@H]1NC(=O)[C@@H](NC(=O)[C@H](CC(C)C)NC(=O)[C@H](C)N)CSCc2cc3cc(c2)CSC[C@@H](C(=O)N2CCC[C@H]2C(=O)N[C@@H](C)C(=O)N[C@@H](CC(=O)O)C(=O)N[C@@H](CCC(=O)O)C(=O)O)NC(=O)[C@H](CC(N)=O)NC(=O)[C@H](CCCNC(=N)N)NC(=O)[C@H](Cc2ccccc2)NC(=O)[C@H](CCCNC(=N)N)NC(=O)[C@H](CC(=O)O)NC(=O)[C@H](CO)NC(=O)[C@H](CSC3)NC(=O)[C@H](Cc2ccccc2)NC(=O)CNC(=O)[C@H](CC(C)C)NC(=O)[C@H](CC(=O)O)NC(=O)[C@H](Cc2ccccc2)NC1=O [X-CG4L1-PK15L1-Y bicyclic] (HELM PEPTIDE1{A.L.C.I.F.D.L.G.F.C.S.D.R.F.R.N.C.P.A.D.E}|CHEM1{[c1c(C[*:1])cc(C[*:3])cc1C[*:2]]}$PEPTIDE1,CHEM1,3:R3-1:R1|PEPTIDE1,CHEM1,10:R3-1:R2|PEPTIDE1,CHEM1,17:R3-1:R3$$$V2.0)",pIC50,[1],4.82
same,digestion with Kalikrein,[3]; 0.01 μg enzyme per reaction,+++
same,digestion with Kalikrein,[3]; 0.1 μg enzyme per reaction,+++
same,digestion with Chymotrypsin,[4]; 0.01 μg enzyme per reaction,+++
same,digestion with Chymotrypsin,[4]; 10 μg enzyme per reaction,−
same,digestion with Subtilisin,[5]; 0.009 μg enzyme per reaction,+++
same,digestion with Subtilisin,[5]; 9 μg enzyme per reaction,−
same,digestion with Cathepsin G,[6]; 0.01 μg enzyme per reaction,+++
same,digestion with Cathepsin G,[6]; 0.1 μg enzyme per reaction,+++
same,digestion with Pronase,[7]; 0.01 μg enzyme per reaction,+++
same,digestion with Pronase,[7]; 0.1 μg enzyme per reaction,+++
same,digestion with Pronase,[7]; 1 μg enzyme per reaction,+++
same,digestion with Trypsin,[8]; 0.01 μg enzyme per reaction,+++
same,digestion with Trypsin,[8]; 10 μg enzyme per reaction,−
COc1ccc2c(CC(=O)NCCCCC(N)C(=O)O)cc(=O)oc2c1 (centres unmarked) [Lys-Mca],binding to BSA (change in anisotropy),[2],no binding
NC(=O)[C@H](CC(=O)O)NC(=O)CNC(=O)[C@H](CO)NC(=O)CNC(=O)[C@H](Cc1c[nH]c2ccccc12)NC(=O)OCC1c2ccccc2-c2ccccc21 [Fmoc-WGSGD-NH2] (HELM PEPTIDE1{[O=C(OCC1c2ccccc2-c2ccccc21)[*:2]].W.G.S.G.D.[am]}$$$$V2.0),pKd,[2],~7.22
same,fold tighter binding to BSA than Fmoc-FGSGD-NH2,[2],3 fold
COc1ccc2c(CC(=O)NCCCC[C@H](NC(=O)OCC3c4ccccc4-c4ccccc43)C(=O)O)cc(=O)oc2c1 [Fmoc-Lys-Mca],pKd,[2],6.47
COc1ccc2c(CC(=O)O)cc(=O)oc2c1 [Mca-OH],binding to BSA (change in anisotropy),[2],did not bind BSA
NC(=O)[C@H](CC(=O)O)NC(=O)CNC(=O)[C@H](CO)NC(=O)CNC(=O)[C@H](Cc1ccccc1)NC(=O)OCC1c2ccccc2-c2ccccc21 [Fmoc-FGSGD-NH2] (HELM PEPTIDE1{[O=C(OCC1c2ccccc2-c2ccccc21)[*:2]].F.G.S.G.D.[am]}$$$$V2.0),fold tighter binding to BSA than the glycine variant Fmoc-GGSGD-NH2,[2],8 fold
